According to patent US11788112B2, “L-2-hydroxyglutarate and stress induced metabolism” (Memorial Sloan-Kettering Cancer Center, priority 2014, dated 2023):

Columns and labels:
[1] = test system: SF188 cells; test: Intracellular 2HG by GC-MS in SF188 cells supplemented with cell-permeable α-KG; assay type: cell-based, human; conditions: 48 hr, 5 mM dimethyl-α-KG vs vehicle (DMSO)
Protocol: FIG. 2 depicts quantified results of GC-MS histograms showing that hypoxia-induced L-2HG originates from glutamine-derived α-ketoglutarate. Panels in (A and B) are line-drawings showing the fraction of intracellular 2HG labeled by ^13C at the indicated time. Isotope tracing was performed in SF188 cells cultured in medium containing either [U-^13C]glucose or [U-^13C]glutamine. […] Panels in (C) are bar graphs showing normalized 2HG. SF188 cells were cultured for 48 hr in 21% or 0.5% O2 in the presence of vehicle (DMSO) or 5 mM dimethyl-α-KG. Total intracellular 2HG was assessed by GC-MS. […] Representative data from 1 of 3 independent experiments are shown. Panels in (D and E) are GC-MS histograms showing 2HG ions in different conditions. SF188 cells were cultured as in (C), then chiral derivatization of metabolites was performed to allow separation of 2HG enantiomers by GC-MS. Panels in (D) show an overlay of GC-MS histograms for 2HG on the same scale. […]
Metabolites were extracted with 1 mL ice-cold 80% methanol supplemented with 2 micromolar deuterated 2-hydroxyglutarate (D-2-hydroxyglutaric-2,3,3,4,4-d5 acid; deuterated-D-2HG) as an internal standard. […] Samples were analyzed using an Agilent 7890A GC coupled to Agilent 5975C mass selective detector. […] Ions used for quantification of metabolite levels were 2HG m/z 247 and deuterated-2HG m/z 252. […]

[2] = target: T1, KDM4C (Homo sapiens, UniProt Q9H3R0); conditions: prior reports (Chowdhury et al., 2011; Lu et al., 2012); cited from earlier work
T1 sequence (Q9H3R0 1-1056): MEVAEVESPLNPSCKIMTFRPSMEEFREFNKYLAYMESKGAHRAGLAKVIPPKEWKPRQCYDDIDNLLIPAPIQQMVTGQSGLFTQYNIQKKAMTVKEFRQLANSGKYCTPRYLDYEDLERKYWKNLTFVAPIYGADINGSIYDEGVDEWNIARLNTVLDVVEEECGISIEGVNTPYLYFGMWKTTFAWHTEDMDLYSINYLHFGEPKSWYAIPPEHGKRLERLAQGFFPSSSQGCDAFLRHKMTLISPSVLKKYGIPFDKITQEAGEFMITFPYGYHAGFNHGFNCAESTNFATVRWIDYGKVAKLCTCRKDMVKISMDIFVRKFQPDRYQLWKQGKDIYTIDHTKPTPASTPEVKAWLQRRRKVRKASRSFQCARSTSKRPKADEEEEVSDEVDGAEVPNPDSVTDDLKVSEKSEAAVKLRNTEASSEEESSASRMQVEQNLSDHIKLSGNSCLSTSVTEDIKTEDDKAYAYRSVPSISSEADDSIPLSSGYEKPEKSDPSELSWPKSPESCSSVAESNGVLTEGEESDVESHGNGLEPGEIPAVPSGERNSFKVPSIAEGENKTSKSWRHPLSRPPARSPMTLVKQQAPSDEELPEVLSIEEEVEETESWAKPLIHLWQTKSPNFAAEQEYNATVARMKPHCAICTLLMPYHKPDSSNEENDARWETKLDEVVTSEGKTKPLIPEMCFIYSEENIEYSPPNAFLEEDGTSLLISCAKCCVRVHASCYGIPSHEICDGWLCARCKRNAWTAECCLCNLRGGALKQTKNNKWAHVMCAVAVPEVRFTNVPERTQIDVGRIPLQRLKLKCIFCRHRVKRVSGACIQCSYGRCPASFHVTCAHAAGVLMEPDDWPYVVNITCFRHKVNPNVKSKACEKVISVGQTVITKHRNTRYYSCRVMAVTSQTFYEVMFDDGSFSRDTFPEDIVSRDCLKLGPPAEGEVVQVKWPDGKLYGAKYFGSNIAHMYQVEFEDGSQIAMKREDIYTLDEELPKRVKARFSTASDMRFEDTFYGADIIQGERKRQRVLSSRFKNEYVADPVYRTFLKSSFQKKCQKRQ

[3] = target: T2, purified human KDM4C (Homo sapiens, UniProt Q9H3R0); test: In vitro histone demethylase assay (H3K9me3 by Western blot); assay type: biochemical; conditions: bulk histones, α-KG 1 mM, 37° C. for 4 hr, various concentrations
T2 construct: GST; purchased BPS Bioscience
T2 sequence (Q9H3R0 1-1056): T1 sequence (Q9H3R0 1-1056)

Compound | increase in intracellular 2HG ([1]; hypoxia (0.5% O2), confirmed to be L-2HG by chiral derivatization) | increase in intracellular 2HG ([1]; normoxia (21% O2)) | inhibition of KDM4C [2] | inhibition of KDM4C demethylation of H3K9me3 [3]
COC(=O)CCC(=O)C(=O)OC [dimethyl-α-KG, dimethyl alpha-ketoglutarate] | ~100 fold | modest increase |  | 
D-2-hydroxyglutarate [D-2HG] |  |  | roughly comparable inhibition | 
O=C(O)CC[C@H](O)C(=O)O [L-2HG, L-2-hydroxyglutarate] |  |  | roughly comparable inhibition | sensitive to inhibition by L-2HG, in a dose dependent manner
